Like-named read-outs stand apart in the source and are kept apart here. Some results are limits rather than exact numbers.

One series deals with HDAC3/NcoR2 complex (Homo sapiens, UniProt O15379). Kind of series: HDAC3 isoform selectivity assay. It is filed as biochemical. Particulars: Table 2 isoform selectivity; read-out: HDAC Inhibition (IC50 uM) isoform 3. The protocol:
(§1) The HDAC1, 2, 4, 5, 6, 7, 8, 9, 10, and 11 assays used isolated recombinant human protein; HDAC3/NcoR2 complex was used for the HDAC3 assay. […] Acetyl-Lys(trifluoroacetyl)-AMC substrate was used for HDAC4, 5, 7, and 9 assays. […] IC50 values were extracted by curve-fitting the dose/response slopes. Assays were performed in duplicate and IC50 values are an average of data from both experiments.

The next series concerns the target HDAC4 (Homo sapiens, UniProt P56524). Description: HDAC4 isoform selectivity assay. It is filed as biochemical. Particulars: Table 2 isoform selectivity; read-out: HDAC Inhibition (IC50 uM) isoform 4. Here is the method:
(§2) The HDAC1, 2, 4, 5, 6, 7, 8, 9, 10, and 11 assays used isolated recombinant human protein; HDAC3/NcoR2 complex was used for the HDAC3 assay. Substrate for HDAC1, 2, 3, 6, 10, and 11 assays is a fluorogenic peptide from p53 residues 379-382 (RHKKAc); substrate for HDAC8 is fluorogenic diacyl peptide based on residues 379-382 of p53 (RHKAcKAc). Acetyl-Lys(trifluoroacetyl)-AMC substrate was used for HDAC4, 5, 7, and 9 assays. Compounds were dissolved in DMSO and tested in 10-dose IC50 mode with 3-fold serial dilution starting at 30 μM. Control Compound Trichostatin A (TSA) was tested in a 10-dose IC50 with 3-fold serial dilution starting at 5 μM. IC50 values were extracted by curve-fitting the dose/response slopes. Assays were performed in duplicate and IC50 values are an average of data from both experiments.

A further series has as its target HDAC5 (Homo sapiens, UniProt Q9UQL6). Kind of series: HDAC5 isoform selectivity assay. Type of series: biochemical. Particulars: Table 2 isoform selectivity; read-out: HDAC Inhibition (IC50 uM) isoform 5. Here is the method:
as §2

In another series the target is T1, HDAC11 (Homo sapiens, UniProt Q96DB2).
T1 sequence (Q96DB2 1-347): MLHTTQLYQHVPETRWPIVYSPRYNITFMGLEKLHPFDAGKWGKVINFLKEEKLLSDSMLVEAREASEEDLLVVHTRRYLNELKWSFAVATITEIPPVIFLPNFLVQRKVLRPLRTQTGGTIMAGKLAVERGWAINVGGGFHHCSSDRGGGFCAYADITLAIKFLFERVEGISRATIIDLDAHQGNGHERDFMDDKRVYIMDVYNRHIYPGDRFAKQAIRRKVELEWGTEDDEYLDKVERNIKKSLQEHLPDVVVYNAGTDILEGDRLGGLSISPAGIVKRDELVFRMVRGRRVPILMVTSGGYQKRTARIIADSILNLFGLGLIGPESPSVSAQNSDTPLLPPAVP
Kind of series: HDAC11 isoform selectivity assay. Type of series: biochemical. To be noted: Table 2 isoform selectivity; read-out: HDAC Inhibition (IC50 uM) isoform 11. Here is the method: as §1

Series [1] can be described thus: Blood brain barrier test: tissue concentration after iv injection. It is filed as in vivo, Mouse. Particulars: after 20 minutes. The protocol:
Tests were conducted to determine the ability of a present compound to cross the blood brain barrier (BBB). In particular, Mouse 1 was injected iv with about 7.5 mg/kg of compound II-ING-6 in DMSO. Mouse 2—about 10 mg/kg. Blood, brain, and liver were collected after 20 minutes (Table 4).

The subject of series [2] is human neuronal SH-SY5Y cells. Kind of series: H2O2-induced neurotoxicity in SH-SY5Y cells (MTT). It is filed as cell-based. Particulars: 24 h pretreatment, MTT at 24 h. Here is the method: FIG. 2A contains bar graphs showing the concentration-dependent neuroprotection of SH-SY5Y cells from H2O2-induced toxicity. Cell viability was measured using the MTT assay at 24 h. […] (B) Test compounds at 5 μM protected N2a cells against MPP+ (100 μM) insult. Cell viability was measured at 24 h using Presto-Blue assay.
(§3) II-ING-6 and II-ING-66, were tested in neuronal cell lines subjected to H2O2 and MPP+-induced toxicity (Parkinson's disease model), and in a composite model of ischemia-reperfusion injury: oxygen glucose deprivation (OGD). In H2O2-induced neurotoxicity in human neuronal SH-SY5Y cells, neuroprotective properties of compounds II-ING-6 and II-ING-66 were assessed using 24 h pretreatment regimen (FIG. 2A). […] Neuroprotection against OGD is expected to be mediated by HIF-1α and Nrf2. In this assay, after pretreatment of cells 24 h prior to OGD insult, both compounds were neuroprotective (FIG. 3A).

Another series relates to mouse neuronal N2a cells. Description: MPP+ neurotoxicity in N2a cells (Presto-Blue). Particulars: 5 μM compound, MPP+ 100 μM, 24 h. It is filed as cell-based. Here is the method: FIG. 2B contains bar graphs showing test compounds at 5 μM protected N2a cells against MPP+(100 μM) insult. Cell viability was measured at 24 h using Presto-Blue assay.
as §3

For another series, the system named is SH-SY5Y cells. Kind of series: Oxygen glucose deprivation (OGD) in SH-SY5Y cells (MTT). Type of series: cell-based, human. To be noted: for Neuroprotection against OGD, pretreatment: pretreatment 24 h prior to OGD insult; for Neuroprotection against OGD, post-treatment: treatment after OGD. The protocol:
FIG. 3A contains bar graphs showing a concentration dependence of II-ING-6 and II-ING-66 neuroprotection in SH-SY5Y cells subject to OGD: 24 h pretreatment.
FIG. 3B contains bar graphs showing concentration dependencies of II-ING-6 and II-ING-66 neuroprotection in SH-SY5Y cells subject to OGD: treatment post OGD. Cell viability was measured using the MTT assay 24 h post insult.
as §3

Series [3] is described as follows: liver-on-a-chip assay, viability of HepaRG hepatocytes by MTT. It is filed as cell-based. Particulars: human, HepaRG hepatocytes in liver-on-a-chip, read-out: LC50.
In series [4] the test system is panel of 43 cloned human and rodent CNS receptors, channels and transporters. Description: PDSP selectivity panel. Type of series: binding. To be noted: 43 CNS receptors. The protocol: Compound II-ING-6 also was tested in a panel of 43 cloned human and rodent CNS receptors, channels and transporters using the NIMH sponsored Psychoactive Drug Screening Program (PDSP).

The next series has as its system Nrf2 target genes. Description: In vivo activation of Nrf2 pathway (RT-PCR of target genes). To be noted: 3 month old male C57BL/6 mice, 25 mg/kg i.p. Here is the method:
The expression of Nrf2 target genes was assessed in 3 month old male C57BL/6 mice administered with II-ING-66 (25 mg/kg i.p.). […] These in vivo data support the in vitro observations of HIF-1α and Nrf2 activation by phenylhydroxamate HDAC inhibitors (Gaisina et al, ACS Chem. Neurosci. 2017).

HDAC3/NcoR2 complex, sequence (O15379 whole entry, canonical isoform): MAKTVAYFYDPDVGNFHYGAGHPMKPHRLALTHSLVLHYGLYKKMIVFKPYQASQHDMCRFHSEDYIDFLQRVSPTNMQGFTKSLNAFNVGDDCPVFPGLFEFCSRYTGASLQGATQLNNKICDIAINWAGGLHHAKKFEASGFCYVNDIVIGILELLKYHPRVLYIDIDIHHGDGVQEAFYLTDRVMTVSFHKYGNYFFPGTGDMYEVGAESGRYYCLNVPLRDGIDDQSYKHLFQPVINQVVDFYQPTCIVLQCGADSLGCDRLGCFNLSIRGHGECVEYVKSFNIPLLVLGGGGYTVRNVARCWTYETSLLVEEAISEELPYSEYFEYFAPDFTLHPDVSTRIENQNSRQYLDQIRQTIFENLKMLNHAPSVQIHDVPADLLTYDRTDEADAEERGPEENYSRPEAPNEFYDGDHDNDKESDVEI
HDAC3/NcoR2 complex, sequence (Q9Y618 395-489 partner limits assumed): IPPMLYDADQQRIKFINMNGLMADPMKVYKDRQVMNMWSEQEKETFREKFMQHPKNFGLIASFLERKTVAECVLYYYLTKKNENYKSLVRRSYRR
HDAC5, sequence (Q9UQL6 whole entry, canonical isoform): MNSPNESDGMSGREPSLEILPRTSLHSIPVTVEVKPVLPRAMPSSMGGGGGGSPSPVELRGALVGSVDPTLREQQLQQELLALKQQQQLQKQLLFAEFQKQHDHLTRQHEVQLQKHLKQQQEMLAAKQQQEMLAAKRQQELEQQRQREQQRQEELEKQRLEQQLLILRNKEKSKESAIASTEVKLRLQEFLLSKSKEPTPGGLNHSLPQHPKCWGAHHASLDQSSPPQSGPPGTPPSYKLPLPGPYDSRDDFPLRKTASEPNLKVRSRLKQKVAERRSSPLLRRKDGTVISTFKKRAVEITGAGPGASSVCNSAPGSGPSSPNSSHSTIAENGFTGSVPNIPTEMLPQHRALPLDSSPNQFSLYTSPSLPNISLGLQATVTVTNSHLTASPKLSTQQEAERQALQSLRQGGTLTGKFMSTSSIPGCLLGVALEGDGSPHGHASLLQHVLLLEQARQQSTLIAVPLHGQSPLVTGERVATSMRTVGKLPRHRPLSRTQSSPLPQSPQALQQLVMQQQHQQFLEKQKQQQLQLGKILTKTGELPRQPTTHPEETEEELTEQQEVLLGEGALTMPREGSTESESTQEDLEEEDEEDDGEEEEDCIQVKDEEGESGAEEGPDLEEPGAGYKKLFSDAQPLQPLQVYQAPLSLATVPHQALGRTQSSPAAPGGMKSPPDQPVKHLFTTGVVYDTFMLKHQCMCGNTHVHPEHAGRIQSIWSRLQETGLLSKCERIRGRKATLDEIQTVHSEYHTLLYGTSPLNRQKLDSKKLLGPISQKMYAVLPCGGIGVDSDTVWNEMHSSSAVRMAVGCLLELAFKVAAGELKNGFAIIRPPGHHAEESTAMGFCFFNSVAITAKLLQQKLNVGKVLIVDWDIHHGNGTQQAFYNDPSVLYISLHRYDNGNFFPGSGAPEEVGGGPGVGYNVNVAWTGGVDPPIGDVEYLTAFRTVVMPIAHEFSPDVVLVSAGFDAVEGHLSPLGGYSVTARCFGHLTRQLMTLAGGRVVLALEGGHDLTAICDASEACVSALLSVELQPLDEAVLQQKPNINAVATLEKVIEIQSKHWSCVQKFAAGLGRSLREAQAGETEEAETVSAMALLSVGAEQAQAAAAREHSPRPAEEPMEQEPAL
HDAC4, sequence (P56524 whole entry, the tested form may be a part, canonical isoform): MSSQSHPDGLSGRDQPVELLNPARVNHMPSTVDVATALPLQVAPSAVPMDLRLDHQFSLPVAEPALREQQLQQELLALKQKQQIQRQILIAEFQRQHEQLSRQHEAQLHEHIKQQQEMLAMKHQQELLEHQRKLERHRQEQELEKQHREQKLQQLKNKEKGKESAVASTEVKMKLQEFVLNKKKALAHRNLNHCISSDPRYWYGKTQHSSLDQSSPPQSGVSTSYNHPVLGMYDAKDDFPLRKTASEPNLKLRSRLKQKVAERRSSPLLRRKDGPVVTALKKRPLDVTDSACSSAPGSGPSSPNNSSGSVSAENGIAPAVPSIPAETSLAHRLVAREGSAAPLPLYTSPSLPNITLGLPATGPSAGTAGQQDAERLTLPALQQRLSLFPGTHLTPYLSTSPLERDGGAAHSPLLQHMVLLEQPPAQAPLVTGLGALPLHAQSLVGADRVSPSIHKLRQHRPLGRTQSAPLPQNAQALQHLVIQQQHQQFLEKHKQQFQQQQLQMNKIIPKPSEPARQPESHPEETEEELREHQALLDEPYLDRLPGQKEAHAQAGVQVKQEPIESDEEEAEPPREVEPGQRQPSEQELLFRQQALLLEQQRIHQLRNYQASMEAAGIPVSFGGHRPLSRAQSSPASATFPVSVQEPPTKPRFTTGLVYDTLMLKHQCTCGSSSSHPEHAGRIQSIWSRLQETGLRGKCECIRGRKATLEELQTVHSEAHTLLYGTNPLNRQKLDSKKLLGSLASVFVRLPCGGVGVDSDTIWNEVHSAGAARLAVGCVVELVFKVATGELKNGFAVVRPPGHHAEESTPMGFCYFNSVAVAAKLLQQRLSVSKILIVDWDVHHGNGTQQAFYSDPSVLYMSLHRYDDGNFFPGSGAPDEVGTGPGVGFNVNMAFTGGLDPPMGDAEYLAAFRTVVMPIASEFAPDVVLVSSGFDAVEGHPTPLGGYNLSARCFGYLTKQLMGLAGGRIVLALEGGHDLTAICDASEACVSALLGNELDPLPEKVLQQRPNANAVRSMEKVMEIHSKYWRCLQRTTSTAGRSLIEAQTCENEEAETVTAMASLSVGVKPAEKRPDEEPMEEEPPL

For `O=C(NO)c1ccc(CN2CCc3ccc(F)cc32)cc1` [II-ING-41, 4-((6-Fluoroindolin-1-yl)methyl)-N-hydroxybenzamide], the half-maximal inhibitory concentration (IC50) – broadly, the concentration at which inhibition is half-maximal – at HDAC3/NcoR2 complex was found to be 5.43 µM; on HDAC4, 2.41 µM; at HDAC5, 1.39 µM; at HDAC11, 5.37 µM.

`Cn1c(NCc2ccc(C(=O)NO)cc2)nc2ccccc21` [II-ING-13, N-Hydroxy-4-(((1-methyl-1H-benzo[d]imidazol-2-yl)amino)methyl)benzamide]: the concentration for half-maximal inhibition (IC50) was found to be 3.51 µM at HDAC3/NcoR2 complex, 2.42 µM on HDAC4, 1.96 µM on HDAC5 and 2.11 µM at HDAC11.

As to `O=C(NO)c1ccc(CN2CCc3ccc(Cl)cc32)cc1` [II-ING-6, 4-((6-Chloroindolin-1-yl)methyl)-N-hydroxybenzamide], the half-maximal inhibitory concentration (IC50) stood at 4.34 µM on HDAC3/NcoR2 complex, 3.48 µM at HDAC4, 2.7 µM at HDAC5 and 4.52 µM on HDAC11. Also, the concentration at 20 min in [1] (brain, Mouse 1, iv 7.5 mg/kg in DMSO, read-out: Concentration, Brain) was found to be 1060 ng/g; in [1] (brain, Mouse 2, iv 10 mg/kg in DMSO, read-out: Concentration, Brain) it was 1760 ng/g; in series [1] (liver, Mouse 1, iv 7.5 mg/kg in DMSO, read-out: Concentration, Liver), 501 ng/g; in [1] (liver, Mouse 2, iv 10 mg/kg in DMSO, read-out: Concentration, Liver) it was 1030 ng/g; in series [1] (plasma, Mouse 1, iv 7.5 mg/kg in DMSO, read-out: Concentration, Plasma) it was 256 ng/g; in [1] (plasma, Mouse 2, iv 10 mg/kg in DMSO, read-out: Concentration, Plasma), 387 ng/g. Also, in [2], the “Neuroprotection from H2O2-induced toxicity” value is “Significant neuroprotection”. The “Protection against MPP+ neurotoxicity” value in the series with mouse neuronal N2a cells is listed as “significant protection”. Also, the “Neuroprotection against OGD, pretreatment” value in the series on SH-SY5Y cells is listed as “neuroprotective”. Also, the “Neuroprotection against OGD, post-treatment” value in the series with SH-SY5Y cells is given as “significant neuroprotection”. Further, in series [3], the CC50 at 48 h was above 500 µM. Besides, the “Activity in PDSP panel” value in series [4] is on record as “No significant activity”.

`O=C(NO)c1ccc(CN2C(=O)C(F)(F)c3ccccc32)cc1` [II-ING-66, 4-((3,3-Difluoro-2-oxoindolin-1-yl)methyl)-N-hydroxybenzamide]: in series [2], the “Neuroprotection from H2O2-induced toxicity” value is reported as “Significant neuroprotection”. Besides, the “Protection against MPP+ neurotoxicity” value with mouse neuronal N2a cells was “significant protection”. Moreover, in the series with SH-SY5Y cells, the “Neuroprotection against OGD, pretreatment” value is “neuroprotective” and the “Neuroprotection against OGD, post-treatment” value is given as “significant neuroprotection only for compound II-ING-6”. Also, the CC50 at 48 h in [3] was above 500 µM. For the same compound, in the series with Nrf2 target genes, the “Hmox-1 expression in the liver” value was “significantly upregulated”; the “Hmox-1 expression in ventral midbrain and striatum” value is “significant increases”; the “NQO1 expression in ventral midbrain and striatum” value is on record as “significant increases”.

For the origin of these results see US10934255B2, “Nrf and HIF activators/HDAC inhibitors and therapeutic methods using the same” (THE BOARD OF TRUSTEES OF THE UNIVERSITY OF ILLINOIS, priority 2017, dated 2021).
